Experimental data: patent US12421243B2, “Pharmaceutically effective compounds inhibiting selectively the myosin 2 isoforms” (PRINTNET KERESKEDELMI ÉS SZOLGÁLTATÓ KFT., priority 2018, dated 2025)

Columns and labels:
[1] = molecular target: recombinant Dictyostelium miozin (Dictyostelium) (Dictyostelium discoideum, UniProt P08799); test: actomyosin steady state ATPase measurement, Dictyostelium myosin; type: biochemical; details: for IC50: concentration required for semi-maximal inhibition of ATPase, read-out: IC50 (μM) Dicty; for inhibition at 5 µM: read-out: % inhibition at 5 μM (or 10 μM if racemate) Dicty; for inhibition at 50 µM: read-out: % inhibition at 50 μM (or 100 μM if racemate) Dicty; for % inhibition. complete Dicty: maximum value of inhibition of ATPase activity
Description: (§1) […]; (ii) the concentration required for semi-maximal inhibition.

[2] = molecular target: T1, isolated porcine cardiac ventricular myocardium (cardiac) (Sus scrofa, UniProt P79293); test: actomyosin steady state ATPase measurement, cardiac myosin; type: biochemical; details: for IC50: concentration required for semi-maximal inhibition of ATPase; for Inhibition (%) cardiac: maximum inhibition, compounds in IC50 range 3-6 μM; for % inhibition. complete cardiac: maximum value of inhibition of ATPase activity; for inhibition at 5 µM: read-out: % inhibition at 5 μM (or 10 μM if racemate) cardiac, 5 μM (10 μM if racemate); for inhibition at 5 µM / inhibition at 50 µM: ATPase activity; for inhibition at 50 µM: read-out: % inhibition at 50 μM (or 100 μM if racemate) cardiac, 50 μM (100 μM if racemate)
T1 construct: isolated porcine cardiac ventricular myocardium (cardiac); from tissue; host or cells: porcine cardiac ventricle
Description: as §1

[3] = molecular target: isolated smooth muscle myosin (UniProt P10587); type: biochemical, chamois; details: for % inhibition at 5 μM (or 10 μM if racemate) Smooth: 5 μM (10 μM if racemate); for % inhibition at 5 μM (or 10 μM if racemate) Smooth / % inhibition at 50 μM (or 100 μM if racemate) Smooth: ATPase activity; for % inhibition at 50 μM (or 100 μM if racemate) Smooth: 50 μM (100 μM if racemate); for % inhibition. complete Smooth: maximum value of inhibition of ATPase activity; for Inhibition (%) smooth: maximum inhibition, compounds in IC50 range […]-5 μM
[4] = system: isolated rabbit skeletal muscle myosin (skeletal); test: actomyosin steady state ATPase measurement, skeletal muscle myosin; type: biochemical; details: for % inhibition at 5 μM (or 10 μM if racemate) Skeletal: 5 μM (10 μM if racemate); for % inhibition at 5 μM (or 10 μM if racemate) Skeletal / % inhibition at 50 μM (or 100 μM if racemate) Skeletal: ATPase activity; for % inhibition at 50 μM (or 100 μM if racemate) Skeletal: 50 μM (100 μM if racemate); for IC50: concentration required for semi-maximal inhibition of ATPase; for % inhibition. complete Skeletal: maximum value of inhibition of ATPase activity; for Inhibition (%) skeletal: maximum inhibition, compounds in IC50 range […]-2 μM
Description: as §1

[5] = molecular target: isolated smooth muscle myosin (UniProt P10587); type: biochemical, chamois; details: concentration required for semi-maximal inhibition of ATPase
Description: (ii) the concentration required for semi-maximal inhibition.

[6] = molecular target: recombinant human non-muscle myosin 2 NM2C (Homo sapiens, UniProt Q7Z406); test: actomyosin steady state ATPase measurement, NM2C; type: biochemical
Description: as §1

Sequence of isolated smooth muscle myosin (P10587 whole entry): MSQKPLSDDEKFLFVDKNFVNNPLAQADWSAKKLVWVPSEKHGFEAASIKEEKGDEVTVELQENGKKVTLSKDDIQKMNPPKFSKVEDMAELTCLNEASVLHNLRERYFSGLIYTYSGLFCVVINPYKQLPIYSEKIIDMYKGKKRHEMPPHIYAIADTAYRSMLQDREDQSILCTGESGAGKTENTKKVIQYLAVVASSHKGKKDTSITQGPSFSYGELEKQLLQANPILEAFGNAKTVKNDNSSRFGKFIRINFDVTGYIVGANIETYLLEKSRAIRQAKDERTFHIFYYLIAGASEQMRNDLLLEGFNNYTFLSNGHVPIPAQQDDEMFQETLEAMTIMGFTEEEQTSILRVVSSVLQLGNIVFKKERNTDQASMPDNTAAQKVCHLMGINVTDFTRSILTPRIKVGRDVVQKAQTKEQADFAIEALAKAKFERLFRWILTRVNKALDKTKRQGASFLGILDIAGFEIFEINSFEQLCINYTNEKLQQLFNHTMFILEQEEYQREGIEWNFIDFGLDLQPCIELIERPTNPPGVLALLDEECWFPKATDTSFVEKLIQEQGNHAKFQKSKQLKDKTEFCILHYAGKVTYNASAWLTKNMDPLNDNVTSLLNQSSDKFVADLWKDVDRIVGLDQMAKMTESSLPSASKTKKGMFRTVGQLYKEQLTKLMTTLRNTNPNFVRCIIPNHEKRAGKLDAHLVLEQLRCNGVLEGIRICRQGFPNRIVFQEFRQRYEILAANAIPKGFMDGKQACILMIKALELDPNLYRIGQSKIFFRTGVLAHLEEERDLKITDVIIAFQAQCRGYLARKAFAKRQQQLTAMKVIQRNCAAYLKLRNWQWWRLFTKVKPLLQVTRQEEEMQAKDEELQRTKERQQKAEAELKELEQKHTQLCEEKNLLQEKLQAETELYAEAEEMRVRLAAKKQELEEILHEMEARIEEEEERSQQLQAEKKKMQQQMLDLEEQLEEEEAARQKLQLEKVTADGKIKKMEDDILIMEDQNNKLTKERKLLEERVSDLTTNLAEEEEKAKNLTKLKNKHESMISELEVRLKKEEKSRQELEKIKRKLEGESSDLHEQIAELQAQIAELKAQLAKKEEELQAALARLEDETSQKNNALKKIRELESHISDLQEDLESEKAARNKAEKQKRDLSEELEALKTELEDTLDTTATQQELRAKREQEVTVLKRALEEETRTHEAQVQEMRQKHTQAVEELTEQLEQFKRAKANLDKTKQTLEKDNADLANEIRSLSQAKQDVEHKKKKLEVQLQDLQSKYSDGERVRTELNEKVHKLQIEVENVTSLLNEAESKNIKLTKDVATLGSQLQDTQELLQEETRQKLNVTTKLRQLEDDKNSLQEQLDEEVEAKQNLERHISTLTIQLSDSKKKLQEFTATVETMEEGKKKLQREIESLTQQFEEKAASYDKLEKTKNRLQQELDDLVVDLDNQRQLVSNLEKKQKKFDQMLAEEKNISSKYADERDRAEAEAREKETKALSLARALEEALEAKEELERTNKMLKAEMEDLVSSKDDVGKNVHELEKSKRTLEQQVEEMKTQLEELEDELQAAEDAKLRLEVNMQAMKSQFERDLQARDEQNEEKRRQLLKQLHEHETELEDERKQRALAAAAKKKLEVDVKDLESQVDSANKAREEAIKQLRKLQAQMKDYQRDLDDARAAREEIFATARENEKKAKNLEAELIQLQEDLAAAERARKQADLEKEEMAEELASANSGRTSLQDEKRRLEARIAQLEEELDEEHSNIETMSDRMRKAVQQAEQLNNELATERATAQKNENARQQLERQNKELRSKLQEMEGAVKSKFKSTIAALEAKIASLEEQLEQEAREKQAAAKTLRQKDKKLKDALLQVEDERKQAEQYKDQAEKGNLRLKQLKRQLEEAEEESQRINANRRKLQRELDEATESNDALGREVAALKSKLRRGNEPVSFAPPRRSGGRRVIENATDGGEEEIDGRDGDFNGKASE
T1 sequence (P79293 whole entry): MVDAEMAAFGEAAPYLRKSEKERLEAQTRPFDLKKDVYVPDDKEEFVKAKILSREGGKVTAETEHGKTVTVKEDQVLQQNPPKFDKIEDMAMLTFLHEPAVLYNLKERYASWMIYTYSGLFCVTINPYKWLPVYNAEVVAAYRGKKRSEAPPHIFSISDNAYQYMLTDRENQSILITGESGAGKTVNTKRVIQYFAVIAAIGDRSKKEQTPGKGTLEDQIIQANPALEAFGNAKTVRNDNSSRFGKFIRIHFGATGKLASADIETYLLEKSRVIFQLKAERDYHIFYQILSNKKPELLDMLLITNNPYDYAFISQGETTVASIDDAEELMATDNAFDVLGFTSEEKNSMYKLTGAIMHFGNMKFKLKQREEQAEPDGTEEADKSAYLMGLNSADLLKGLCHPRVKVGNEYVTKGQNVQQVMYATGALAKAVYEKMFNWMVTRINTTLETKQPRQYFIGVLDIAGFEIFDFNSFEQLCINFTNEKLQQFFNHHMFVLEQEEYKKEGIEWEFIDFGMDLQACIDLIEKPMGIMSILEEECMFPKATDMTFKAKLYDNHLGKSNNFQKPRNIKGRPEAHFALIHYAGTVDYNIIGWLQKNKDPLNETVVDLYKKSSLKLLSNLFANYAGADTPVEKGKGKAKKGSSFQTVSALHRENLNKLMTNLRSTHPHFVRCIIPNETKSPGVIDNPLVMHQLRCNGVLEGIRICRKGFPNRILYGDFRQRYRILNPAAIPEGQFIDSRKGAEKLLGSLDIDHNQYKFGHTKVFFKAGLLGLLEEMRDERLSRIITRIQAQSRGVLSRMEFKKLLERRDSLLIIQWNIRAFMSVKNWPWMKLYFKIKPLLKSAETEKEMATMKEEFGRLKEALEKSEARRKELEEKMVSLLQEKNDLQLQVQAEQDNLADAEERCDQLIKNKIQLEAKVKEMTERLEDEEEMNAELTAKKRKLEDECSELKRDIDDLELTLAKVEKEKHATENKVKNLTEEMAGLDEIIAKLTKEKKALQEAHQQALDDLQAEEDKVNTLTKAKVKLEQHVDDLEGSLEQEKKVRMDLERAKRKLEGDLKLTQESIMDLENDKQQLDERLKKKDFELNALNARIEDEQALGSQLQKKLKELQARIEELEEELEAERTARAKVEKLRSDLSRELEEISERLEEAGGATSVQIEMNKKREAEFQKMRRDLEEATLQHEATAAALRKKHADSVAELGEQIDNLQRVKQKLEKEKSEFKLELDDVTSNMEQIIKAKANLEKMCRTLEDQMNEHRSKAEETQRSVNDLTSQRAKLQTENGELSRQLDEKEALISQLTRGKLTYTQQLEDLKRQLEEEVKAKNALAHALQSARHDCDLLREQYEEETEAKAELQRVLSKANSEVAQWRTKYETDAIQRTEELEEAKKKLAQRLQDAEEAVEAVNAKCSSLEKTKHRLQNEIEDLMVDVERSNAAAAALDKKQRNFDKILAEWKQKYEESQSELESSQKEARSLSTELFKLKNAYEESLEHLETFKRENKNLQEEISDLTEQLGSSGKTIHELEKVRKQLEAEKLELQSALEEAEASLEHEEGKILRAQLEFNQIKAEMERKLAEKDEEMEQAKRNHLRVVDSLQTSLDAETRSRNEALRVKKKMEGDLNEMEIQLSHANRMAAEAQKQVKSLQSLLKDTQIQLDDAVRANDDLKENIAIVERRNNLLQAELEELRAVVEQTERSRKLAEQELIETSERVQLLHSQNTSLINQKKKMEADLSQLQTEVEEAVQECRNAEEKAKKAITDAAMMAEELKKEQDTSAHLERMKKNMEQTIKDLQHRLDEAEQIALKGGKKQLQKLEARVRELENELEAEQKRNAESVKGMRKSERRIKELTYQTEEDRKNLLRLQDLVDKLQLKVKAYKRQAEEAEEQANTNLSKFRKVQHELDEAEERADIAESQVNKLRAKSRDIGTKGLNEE

Compound | IC50 [1] [µM] | inhibition at 5 µM [1] [%] | inhibition at 50 µM [1] [%] | IC50 [2] [µM] | % inhibition. complete cardiac [2] [%] | inhibition at 5 µM [2] [%] | inhibition at 50 µM [2] [%] | % inhibition at 5 μM (or 10 μM if racemate) Smooth [3] [%] | % inhibition at 50 μM (or 100 μM if racemate) Smooth [3] [%] | % inhibition. complete Smooth [3] [%] | % inhibition at 5 μM (or 10 μM if racemate) Skeletal [4] [%] | % inhibition at 50 μM (or 100 μM if racemate) Skeletal [4] [%] | IC50 [4] [µM] | % inhibition. complete Skeletal [4] [%] | IC50 [5] [µM] | % inhibition. complete Dicty [1] [%] | further results
O=C1c2ccsc2N=C2NCC[C@@]12O [Compound 207, (9S)-9-Hydroxy-4-thia-2,12-diazatricyclo[7.3.0.0^3,7]dodeca-1,3(7),5-trien-8-one] | > 100 | 0 | 5 | 3.7 | 8 | 4 | 7 | 7 | 6 | 7 | 7 | 14 | 5.8 | 15 | 1 |  | Inhibition (%) cardiac [2]: 8%
O=C1c2ccsc2N=C2N(c3ccc(OC(F)(F)F)cc3)CC[C@@]12O [Compound 212, (9S)-9-hydroxy-12-[4-(trifluoromethoxy)phenyl]-4-thia-2,12-diazatricyclo[7.3.0.0^3,7]dodeca-1,3(7),5-trien-8-one] | 10.9 | 26 | 69 | 5.9 | 100 | 43 | 93 | 24 | 61 | 74 | 94 | 97 | 0.19 | 98 | 10.4 | 84 | Inhibition (%) Dicty ([1]; maximum inhibition, compounds in IC50 range […]-11 μM): 84%; IC50 ([6]; concentration required for semi-maximal inhibition of ATPase): 6.4 µM; % inhibition. complete NM2C ([6]; maximum value of inhibition of ATPase activity): 61%; inhibition at 5 µM ([6]; read-out: % inhibition at 5 μM (or 10 μM if racemate) NM2C, 5 μM (10 μM if racemate), ATPase activity): 19%; inhibition at 50 µM ([6]; read-out: % inhibition at 50 μM (or 100 μM if racemate) NM2C, 50 μM (100 μM if racemate), ATPase activity): 56%
Cc1cc2c(s1)N=C1NCCC1(O)C2=O (stereo not shown) [Compound 231, 9-Hydroxy-5-methyl-4-thia-2,12-diazatricyclo[7.3.0.0^3,7]dodeca-1,3(7),5-trien-8-one] | > 100 | 4 | 0 | 1 |  | 6 | 5 | 7 | 2 | 5 | 5 | 7 | 1.4 | 7 | 1 |  | Inhibition (%) smooth [3]: 5%; Inhibition (%) skeletal [4]: 7%
Cc1ccc(N2CCC3(O)C(=O)c4cc(C)sc4N=C23)cc1 (stereo not shown) [Compound 235, 12-[4-(Methyl)phenyl]-9-hydroxy-5-methyl-4-thia-2,12-diazatricyclo[7.3.0.0^3,7]dodeca-1,3(7),5-trien-8-one] | 0.17 | 44 | 45 | 0.01 | 71 | 72 | 70 | 82 | 79 | 81 | 98 | 100 | 0.08 | 100 | 0.01 | 46 | 
CC(=O)c1ccc(N2CCC3(O)C(=O)c4ccncc4N=C23)cc1 (stereo not shown) [Compound 240, 1-(4-Acetylphenyl)-3a-hydroxy-1H,2H,3H,3aH,4H-pyrrolo[2,3-b]1,7-naphthyridin-4-one] | 0.39 | 24 | 26 | 8.1 | 37 | 13 | 31 | 18 | 23 | 24 | 49 | 83 | 4.3 | 91 | 1.5 |  | Inhibition (%) smooth [3]: 24%
Cc1ccc(N2CCC3(O)C(=O)c4ccncc4N=C23)cc1 (stereo not shown) [Compound 247, 1-[4-(Methyl)phenyl]-3a-hydroxy-1H,2H,3H,3aH,4H-pyrrolo[2,3-b]1,7-naphthyridin-4-one] | 71 | 4 | 22 | 31 | 70 | 9 | 43 | 3 | 15 | 29 | 74 | 96 | 1.7 | 99 | 44 | 54 | 
O=C1c2ccncc2N=C2N(c3ccc(N4CCOCC4)cc3)CCC12O (stereo not shown) [Compound 248, 3a-Hydroxy-1-[4-(morpholin-4-yl)phenyl]-1H,2H,3H,3aH,4H-pyrrolo[2,3-b]1,7-naphthyridin-4-one] | > 100 | 0 | 7 | > 100 | 2 | 4 | 1 | 1 | 0 | 0 | 21 | 56 | 12 | 70 | > 100 | 100 | 
CN(C)c1ccc(N2CC[C@@]3(O)C(=O)c4ccsc4N=C23)cc1 [Compound 249, (9S)-12-[4-(dimethylamino)phenyl]-9-hydroxy-4-thia-2,12-diazatricyclo[7.3.0.0^3,7]dodeca-1,3(7),5-trien-8-one] | 10 | 15 | 39 | 35 | 90 | 11 | 52 | 19 | 55 | 69 | 80 | 97 | 1.2 | 100 | 13 | 47 | Inhibition (%) skeletal [4]: 100%
Cc1cc2c(s1)N=C1N(c3ccc(N(C)C)cc3)CCC1(O)C2=O (stereo not shown) [Compound 250, 12-[4-(Dimethylamino)phenyl]-9-hydroxy-5-methyl-4-thia-2,12-diazatricyclo[7.3.0.0^3,7]dodeca-1,3(7),5-trien-8-one] | 18 | 15 | 50 | 9 | 76 | 26 | 64 |  |  |  | 93 | 98 | 0.3 | 99 |  | 68 | 
CN(C)c1ccc(N2CCC3(O)C(=O)c4ccncc4N=C23)cc1 (stereo not shown) [Compound 251, 1-[4-(Dimethylamino)phenyl]-3a-hydroxy-1H,2H,3H,3aH,4H-pyrrolo[2,3-b]1,7-naphthyridin-4-one] | > 100 | 1 | 1 | 6 | 15 | 6 | 13 | 0 | 25 | 100 | 47 | 85 | 4.8 | 93 | > 100 |  | Inhibition (%) cardiac [2]: 15%
O=C1c2ccncc2N=C2NCCC12O (stereo not shown) [Compound 255, 3a-Hydroxy-1H,2H,3H,3aH,4H-pyrrolo[2,3-b]1,7-naphthyridin-4-one] | 42 | 4 | 18 | 1 |  | 7 | 7 | 3 | 3 | 3 | 6 | 7 | 1.7 | 7 | 1 | 33 | Inhibition (%) skeletal [4]: 7%
